ChEMBL document CHEMBL1137023, “Synthesis and antibacterial activity of arylpiperazinyl oxazolidinones with diversification of the N-substituents” (2004)
In brackets after ≈: the same amount, converted by molar mass.

What was measured:
[1] = system: Staphylococcus aureus; test: Antibacterial activity against Staphylococcus aureus was evaluated in infected mice; format: functional
[2] = system: Staphylococcus aureus; test: Minimum inhibitory concentration against Staphylococcus aureus ATCC 25923; format: functional
[3] = system: Enterococcus faecalis; test: Minimum inhibitory concentration against Enterococcus faecalis ATCC 29212; format: functional
[4] = Minimum inhibitory concentration against […] ATCC 13813; format: functional; settings: Streptococcus agalactiae
[5] = system: Streptococcus pyogenes; test: Minimum inhibitory concentration against Streptococcus pyogenes ATCC 8668

SMILES | MIC [2] [µg/mL] | MIC [3] [µg/mL] | MIC [4] [µg/mL] | MIC [5] [µg/mL] | ED50 [1] [mg/kg]
O=C1O[C@@H](COc2ccccn2)CN1c1ccc(N2CCN(c3ccccc3Cl)CC2)c(F)c1 | > 64 | > 64 | > 64 | > 64 | –
COC(=S)NC[C@H]1CN(c2ccc(N3CCN(c4ccccc4)CC3)c(F)c2)C(=O)O1 | 0.25 (≈ 0.562 µM) | 0.25 (≈ 0.562 µM) | 0.12 (≈ 0.27 µM) | – | –
COc1ccccc1N1CCN(c2ccc(N3C[C@H](CNC(N)=S)OC3=O)cc2F)CC1 | 0.25 (≈ 0.544 µM) | 0.25 (≈ 0.544 µM) | 0.25 (≈ 0.544 µM) | – | –
O=C1O[C@@H](COC2CNCCN2)CN1c1ccc(N2CCN(c3ccccc3Cl)CC2)c(F)c1 (stereo partly drawn) | > 64 | > 64 | > 64 | > 64 | –
CC(=S)NC[C@H]1CN(c2ccc(N3CCN(c4ccc(Cl)cc4)CC3)c(F)c2)C(=O)O1 | 0.12 (≈ 0.259 µM) | 0.25 (≈ 0.54 µM) | 0.25 (≈ 0.54 µM) | – | –
NC(=S)NC[C@H]1CN(c2ccc(N3CCN(c4cccc(C(F)(F)F)c4)CC3)c(F)c2)C(=O)O1 | 0.25 (≈ 0.502 µM) | 0.25 (≈ 0.502 µM) | 0.12 (≈ 0.241 µM) | – | –
COC(=S)NC[C@H]1CN(c2ccc(N3CCN(c4cccc(Cl)c4)CC3)c(F)c2)C(=O)O1 | 0.12 (≈ 0.251 µM) | 0.12 (≈ 0.251 µM) | 0.12 (≈ 0.251 µM) | – | –
NC(=S)NC[C@H]1CN(c2ccc(N3CCN(c4ccc(Cl)cc4)CC3)c(F)c2)C(=O)O1 | 0.12 (≈ 0.259 µM) | 0.5 (≈ 1.08 µM) | 0.12 (≈ 0.259 µM) | – | –
Cc1ccccc1N1CCN(c2ccc(N3C[C@H](CNC(N)=S)OC3=O)cc2F)CC1 | 0.12 (≈ 0.271 µM) | 0.25 (≈ 0.564 µM) | 0.12 (≈ 0.271 µM) | – | –
CSC(=S)NC[C@H]1CN(c2ccc(N3CCN(c4cccc(Cl)c4)CC3)c(F)c2)C(=O)O1 | 0.12 (≈ 0.242 µM) | 0.5 (≈ 1.01 µM) | 1 (≈ 2.02 µM) | – | –
O=C1O[C@@H](CO[n+]2ccco2)CN1c1ccc(N2CCN(c3ccccc3Cl)CC2)c(F)c1 | > 64 | > 64 | > 64 | > 64 | –
CC(=S)NC[C@H]1CN(c2ccc(N3CCN(c4ccccc4)CC3)c(F)c2)C(=O)O1 | 0.12 (≈ 0.28 µM) | 0.25 (≈ 0.583 µM) | 0.12 (≈ 0.28 µM) | – | –
COC(=S)NC[C@H]1CN(c2ccc(N3CCN(c4cccc(OC)c4)CC3)c(F)c2)C(=O)O1 | 0.12 (≈ 0.253 µM) | 0.12 (≈ 0.253 µM) | 0.12 (≈ 0.253 µM) | – | –
CC(=O)NC[C@H]1CN(c2ccc(N3CCOCC3)c(F)c2)C(=O)O1 [LINEZOLID] | 0.25 (≈ 0.741 µM) | – | 0.5 (≈ 1.48 µM) | 0.5 (≈ 1.48 µM) | 4

The next lines start with results.

MIC [2] [µg/mL] | MIC [3] [µg/mL] | MIC [4] [µg/mL] | MIC [5] [µg/mL] | SMILES | ED50 [1] [mg/kg]
0.06 (≈ 0.13 µM) | 0.12 (≈ 0.26 µM) | 0.25 (≈ 0.542 µM) | – | CSC(=S)NC[C@H]1CN(c2ccc(N3CCN(c4ccccn4)CC3)c(F)c2)C(=O)O1 | > 16
0.12 (≈ 0.279 µM) | 0.25 (≈ 0.581 µM) | 0.12 (≈ 0.279 µM) | – | NC(=S)NC[C@H]1CN(c2ccc(N3CCN(c4ccccn4)CC3)c(F)c2)C(=O)O1 | –
0.12 (≈ 0.269 µM) | 0.03 (≈ 0.0672 µM) | 0.12 (≈ 0.269 µM) | – | CC(=S)NC[C@H]1CN(c2ccc(N3CCN(c4cccc(F)c4)CC3)c(F)c2)C(=O)O1 | –
0.12 (≈ 0.271 µM) | 0.05 (≈ 0.113 µM) | 0.12 (≈ 0.271 µM) | – | CC(=S)NC[C@H]1CN(c2ccc(N3CCN(c4ccccc4C)CC3)c(F)c2)C(=O)O1 | –
0.03 (≈ 0.0653 µM) | 0.06 (≈ 0.131 µM) | 0.06 (≈ 0.131 µM) | – | COc1cccc(N2CCN(c3ccc(N4C[C@H](CNC(N)=S)OC4=O)cc3F)CC2)c1 | –
0.12 (≈ 0.269 µM) | 0.12 (≈ 0.269 µM) | 0.06 (≈ 0.135 µM) | – | COC(=S)NC[C@H]1CN(c2ccc(N3CCN(c4ccccn4)CC3)c(F)c2)C(=O)O1 | > 16
0.12 (≈ 0.253 µM) | 0.12 (≈ 0.253 µM) | 0.12 (≈ 0.253 µM) | – | CSC(=S)NC[C@H]1CN(c2ccc(N3CCN(c4ccccc4C)CC3)c(F)c2)C(=O)O1 | –
0.03 (≈ 0.0648 µM) | 0.06 (≈ 0.13 µM) | 0.03 (≈ 0.0648 µM) | – | CC(=S)NC[C@H]1CN(c2ccc(N3CCN(c4cccc(Cl)c4)CC3)c(F)c2)C(=O)O1 | > 16
0.12 (≈ 0.254 µM) | 0.12 (≈ 0.254 µM) | 0.25 (≈ 0.529 µM) | – | COc1cccc(N2CCN(c3ccc(N4C[C@H](CNC(=S)SC)OC4=O)cc3)CC2)c1 | –
0.12 (≈ 0.259 µM) | > 64 | 0.12 (≈ 0.259 µM) | – | CC(=S)NC[C@H]1CN(c2ccc(N3CCN(c4ccccc4Cl)CC3)c(F)c2)C(=O)O1 | –
0.12 (≈ 0.292 µM) | 0.12 (≈ 0.292 µM) | 0.25 (≈ 0.607 µM) | – | NC(=S)NC[C@H]1CN(c2ccc(N3CCN(c4ccccc4)CC3)cc2)C(=O)O1 | –
0.03 (≈ 0.0673 µM) | 0.06 (≈ 0.135 µM) | 0.06 (≈ 0.135 µM) | – | NC(=S)NC[C@H]1CN(c2ccc(N3CCN(c4ccccc4Cl)CC3)cc2)C(=O)O1 | –
0.12 (≈ 0.259 µM) | 0.25 (≈ 0.539 µM) | 0.12 (≈ 0.259 µM) | – | NC(=S)NC[C@H]1CN(c2ccc(N3CCN(c4ccccc4Cl)CC3)c(F)c2)C(=O)O1 | –
0.06 (≈ 0.14 µM) | 0.12 (≈ 0.279 µM) | 0.06 (≈ 0.14 µM) | – | NC(=S)NC[C@H]1CN(c2ccc(N3CCN(c4ccccc4)CC3)c(F)c2)C(=O)O1 | –
0.02 (≈ 0.0431 µM) | 0.06 (≈ 0.129 µM) | 0.008 (≈ 0.0172 µM) | – | NC(=S)NC[C@H]1CN(c2ccc(N3CCN(c4cccc(Cl)c4)CC3)c(F)c2)C(=O)O1 | > 16
0.06 (≈ 0.14 µM) | 0.25 (≈ 0.582 µM) | 0.12 (≈ 0.279 µM) | – | CC(=S)NC[C@H]1CN(c2ccc(N3CCN(c4ccccn4)CC3)c(F)c2)C(=O)O1 | –
